Measurements as given in PubChem BioAssay (NCI).
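Values below derive from 48-hour exposures of cells grown in 96-well plates, with endpoints linearly interpolated between the two concentrations bracketing the appropriate inhibition level. The concentration for full growth arrest is given as TGI.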

What was measured:
Test in all cases: inhibition of tumour cell growth, NCI panel, 48 h
786-0 renal = test system: 786-0 renal
A549 NSCLC = test system: A549 NSCLC
CAKI-1 renal = test system: CAKI-1 renal
COLO 205 colon = test system: COLO 205 colon
HCC-2998 colon = test system: HCC-2998 colon
HL-60(TB) leukemia = test system: HL-60(TB) leukemia
K-562 leukemia = test system: K-562 leukemia
KM12 colon = test system: KM12 colon
LOX IMVI melanoma = test system: LOX IMVI melanoma
NCI-H226 lung = test system: NCI-H226 lung
NCI-H23 lung = test system: NCI-H23 lung
NCI-H522 lung = test system: NCI-H522 lung
OVCAR-4 ovarian = test system: OVCAR-4 ovarian
SK-MEL-5 melanoma = test system: SK-MEL-5 melanoma
SK-OV-3 ovarian = test system: SK-OV-3 ovarian
SNB-19 CNS = test system: SNB-19 CNS
SR leukemia = test system: SR leukemia
U251 CNS = test system: U251 CNS
UO-31 renal = test system: UO-31 renal

| Structure (SMILES) | TGI (786-0 renal) [µM] | TGI (A549 NSCLC) [µM] | TGI (CAKI-1 renal) [µM] | TGI (COLO 205 colon) [µM] | TGI (HCC-2998 colon) [µM] | TGI (HL-60(TB) leukemia) [µM] | TGI (K-562 leukemia) [µM] | TGI (KM12 colon) [µM] | TGI (LOX IMVI melanoma) [µM] | TGI (NCI-H226 lung) [µM] | TGI (NCI-H23 lung) [µM] | TGI (NCI-H522 lung) [µM] | TGI (OVCAR-4 ovarian) [µM] | TGI (SK-MEL-5 melanoma) [µM] | TGI (SK-OV-3 ovarian) [µM] | TGI (SNB-19 CNS) [µM] | TGI (SR leukemia) [µM] | TGI (U251 CNS) [µM] | TGI (UO-31 renal) [µM] |
| --- | --- | --- | --- | --- | --- | --- | --- | --- | --- | --- | --- | --- | --- | --- | --- | --- | --- | --- | --- |
| CC(OCc1ccccc1)C(NC(=O)C1CSSCC(NC(=O)C(Cc2ccccc2)NC(=O)OCc2ccccc2)C(=O)NC(Cc2ccccc2)C(=O)NC(Cc2cn(C=O)c3ccccc23)C(=O)NC(CCCCNC(=O)OCc2ccccc2)C(=O)NC(C(C)OCc2ccccc2)C(=O)N1)C(N)=O (centres undefined) | > 86.9 | > 100 | > 100 | 10.5 | > 32.5 | 2.89 | > 100 | > 55.5 | 47 | > 100 | > 100 | 38.5 | > 79.3 | > 73.8 | > 100 | > 100 | > 93.4 | > 70.7 | > 100 |
| O=C1C2Nc3ccccc3SC2C(=O)N1c1cccc([N+](=O)[O-])c1 (centres undefined) | > 100 | > 100 | > 100 | > 100 | > 100 | > 100 | > 100 | > 100 | > 100 | > 100 | > 100 | > 100 | > 100 | > 100 | > 100 | > 100 | > 100 | > 100 | > 100 |
| CN(C)/C=N/S(=O)(=O)c1nn2c(C=O)c(-c3ccc([N+](=O)[O-])cc3)nc2s1 | 9.03 | > 100 | 7.13 | > 34.3 | > 43.4 | 3.85 | > 27.3 | 42.3 | 27 | > 95.1 | 49.7 | 3.86 | 39.7 | 17.4 | > 100 | > 100 | > 43.3 | 41.6 | 13.2 |
| N#CC(c1ccccc1)N(CCc1ccccc1)C(=O)Oc1ccccc1 (centres undefined) | > 100 | > 100 | > 100 | > 100 | > 100 | > 100 | > 100 | > 100 | > 100 | > 100 | > 100 | > 100 | > 100 | > 100 | > 100 | > 100 | > 100 | > 100 | > 100 |
| COc1ccc2c(c1)c1c3c(ccc4ncn2c43)N(CCN(C)C)CCN=1 | 1.3 | 2.04 | 9.13 | 1.83 | 1.35 | 1.1 | 0.705 | 1.7 | 1.53 | 2.89 | 3.59 | 0.806 | 1.16 | 2.31 | 4.04 | 1.96 | 0.209 | 1.41 | 1.74 |
| COc1ccc(C2C(Cl)C(=O)N2NC(=O)c2ccc(N)cc2)cc1OC (centres undefined) | 8.59 | 34.1 | 6.84 | 30.3 | 19.9 | 4.54 | 16.5 | 5.64 | 3.55 | 38.3 | 18.8 | 3.75 | 19 | 26.3 | 33 | 30.5 | 4.85 | 7.28 | 25.7 |
| Cn1c2c(cc(-c3ccccc3)c1=O)COc1ccccc1-2 | > 100 | > 100 | > 100 | > 100 | > 100 | 56.1 | 53.2 | 29 | 31.3 | > 100 | > 100 | 52.3 | > 100 | 39.9 | 86.8 | > 100 | > 100 | > 100 | 63.3 |
| COC(=O)/C(=N\O)C(C(=O)C=C(C)C)C(=O)C(=O)Nc1ccccc1C (centres undefined) | > 100 | > 100 | > 100 | > 100 | > 100 | > 100 | > 100 | > 100 | > 100 | > 100 | > 100 | > 100 | > 100 | > 100 | > 100 | > 100 | > 100 | > 100 | > 100 |
| COc1cc(C2C(Cl)C(=O)N2NC(=O)Cc2ccccc2)ccc1O (centres undefined) | > 100 | > 100 | > 100 | > 100 | > 100 | 80.7 | > 100 | > 100 | > 100 | > 100 | > 100 | 56.3 | > 100 | > 100 | > 100 | > 100 | 83.4 | > 100 | > 100 |
| CCOC(=O)c1cn2c([nH]c3ccccc32)c(C#N)c1=O | > 100 | > 100 | > 100 | > 100 | > 100 | 47.1 | > 100 | > 100 | 56.8 | > 100 | > 100 | > 100 | > 100 | > 100 | > 100 | > 100 | > 100 | > 100 | > 100 |
| CCOC(=O)CC(N1CC1)N1CC1 | > 10 | > 10 | > 10 | > 10 | > 10 | > 10 | > 10 | > 10 | > 10 | > 10 | > 10 | > 10 | > 10 | > 10 | > 10 | > 10 | > 10 | > 10 | > 10 |
| CCOC(=O)c1c(C(F)(F)F)oc2c1ccc1nc3nonc3nc12 | 25.3 | 35 | 27.3 | 55.1 | 47.6 | 32.5 | 13.9 | 51.3 | 31.8 | 36.1 | 18.3 | 29.3 | 24.9 | 26.7 | 35.7 | 38.2 | 17.7 | 29.1 | 33.4 |
| COC(=O)C(=O)C1CCCCC(C2=NC3NN=C(N)N3C2=O)C1=O (centres undefined) | > 100 | > 100 | > 100 | > 100 | > 100 | > 100 | > 100 | > 100 | > 100 | > 100 | > 100 | > 100 | > 100 | > 100 | > 100 | > 100 | > 100 | > 100 | > 100 |
| CNC(=O)OCCN1c2ccccc2Sc2ccccc21 | > 100 | > 100 | > 100 | > 100 | > 100 | > 100 | > 100 | > 100 | > 100 | > 100 | > 100 | > 100 | > 100 | > 100 | > 100 | > 100 | > 100 | > 100 | > 100 |
| COc1nc2c(c(=O)n1C)NC(C(O)C(O)CO)C=N2 (centres undefined) | > 10 | > 10 | > 10 | > 10 | > 10 | > 10 | > 10 | > 10 | > 10 | > 10 | > 10 | > 10 | > 10 | > 10 | > 10 | > 10 | > 10 | > 10 | > 10 |
| Cc1cc2c(=O)[nH]nc(N)c2c(N)n1 | > 100 | > 100 | > 100 | > 100 | > 100 | > 100 | > 100 | > 100 | > 100 | > 100 | > 100 | > 100 | > 100 | > 100 | > 100 | > 100 | > 100 | > 100 | > 100 |
